Laboratory results taken from patent publication US20230416307A1, “[…] PEPTIDES FOR ENHANCING VIRAL PRODUCTION” (Synvivia, Inc., priority 2022, published 2023).

test system: AAV2; test: Physical titer (qPCR or ddPCR, VG/ml) of AAVs packaged in cells expressing a CP; type: cell-based, adeno-associated virus; conditions: FIG. 20A; GFP payload; cells expressing individual CP relative to no CP expression
Experimental: (§1) FIG. 20. Exemplary bar charts showing fold improvement of physical titer and/or biological titer for various CPs. […] The payload being packaged during AAV production is GFP only. The cyclic peptide generator is located on a separate DNA, is only expressed by the host cell, and is not able to be packaged. Physical titer is quantified by qPCR or ddPCR and expressed as viral genomes produced per mL (VG/ml) of AAV packaging cells and media. […] Biological titer is measured in vitro by transducing a standardized number of wild-type (WT) mammalian (HEK293) cells with diluted AAVs harvested after packaging with or without CP expression. The transductants are identified by GFP payload expression. The fold improvement is calculated by dividing the percentage of GFP expressing (transduced) cells after transduction with AAVs packaged in cells expressing a CP by the percentage of GFP expressing (transduced) cells after transduction with AAVs packaged in cells that are not expressing a CP.
Primers binding the eGFP reporter protein were used to measure the virus titer with quantitative polymerase chain reaction (qPCR). Before releasing the viral DNA from the particles, all extra-viral DNA was removed by digestion with DNase I. Then, the viral DNA was released by alkaline lysis. The qPCR was performed using the PowerUp™ SYBR™ Green Master Mix (Applied Biosystems), and primers against the zsGreen obtained from Integrated DNA Technologies. The extracted viral DNA and a serial dilution of a viral plasmid containing z as a standard were measured using the CFX96 Touch Real-Time PCR Detection System and the CFX Maestro Software (Bio-Rad, Hercules, CA).
(§2) 50-70% confluent HEK-293T cells (˜10^6 total cells) grown in DMEM supplemented with 5% FBS were quadruple transfected with pHelper Vector, pAAV-ZsGreenl Vector, AAVpro® Packaging Rep-Cap Plasmid (AAV2), and pTargeT Mammalian Expression Vector with cloned individual cyclic peptide generator of interest in a 1:1:1:1 molar ratio normalized to the plasmid size using JetOptimus Transfection Reagent in 100 mm TC treated petri dish. AAV preparation is conducted as described above. Biological viral titer measurement is performed as described above.
(§3) • 1. A 100-mm cell culture dish was reseeded with 4.0×10^6 Hek293T cells in high glucose DMEM culture medium supplemented with 10% FBS. • 2. One day after plating, the cells (70-80% confluence) were co-transfected with 3.2ug pRC2 which encodes Rep and Cap genes (SEQ ID NO: 1-7), 4.6ug pHelper which encodes Adenovirus helper genes (SEQ ID NO: 16-19, 22, 23), 2.2ug payload vector, and 1-100ng engineered cyclic peptide expression vector (if using). A jetOPTIMUS DNA transfection reagent i used during the transfection protocol (from Polyplus). • 3. 12-16 hours after transfection, media was replaced with low glucose DMEM culture medium supplemented with 1% FBS, 1×Glutamax, 10 mM HEPES, and 0.075% sodium bicarbonate. • 4. Cells and media were harvested 4 days after transfection and frozen in 1 mL aliquots. • 5. Frozen aliquots were thawed and lysed using AAVMax Lysis Reagent (Life Technologies, USA, A50520). 100 uL of AAVMax Lysis buffer was added to 900 uL of cell and media. Mixture was incubated for 2 hours with rotating. Debris was pelleted at 5,000xg for 15 minutes. AAV containing supernatant was collected. • 6. The physical and biological titers of the harvested AAV samples were determined by qPCR and biological viral titer measurement as described in Example 1.
The physical titer fold improvement was calculated by dividing the physical titer of AAVs packaged in cells expressing a CP by the physical titer of cells that are not expressing a CP.

Substance	fold improvement in physical titer of AAVs
CADTV: engineered cyclic peptide, SEQ ID NO: 49 (cyclic; Cyclic peptide that was found to enhance AAV viral titer)	fold improvements in physical titer
CQSRS: engineered cyclic peptide, SEQ ID NO: 54 (cyclic; Cyclic peptide that was found to enhance AAV viral titer)	fold improvements in physical titer
CSESCP: engineered cyclic peptide, SEQ ID NO: 57 (cyclic; Cyclic peptide that was found to enhance AAV viral titer)	fold improvements in physical titer
CPKNP: engineered cyclic peptide, SEQ ID NO: 53 (cyclic; Cyclic peptide that was found to enhance AAV viral titer)	fold improvements in physical titer
CTCKK: engineered cyclic peptide, SEQ ID NO: 59 (cyclic; Cyclic peptide that was found to enhance AAV viral titer)	fold improvements in physical titer
CKDYFS: engineered cyclic peptide expressed from a generator plasmid, SEQ ID NO: 34 (cyclic; Cyclic peptide that was found to increase AAV viral titer.)	fold improvements in physical titer

test system: AAV2; test: Biological titer of AAVs packaged in cells expressing a CP (GFP-positive transduced HEK293 cells); type: cell-based, adeno-associated virus; conditions: FIG. 20B; HEK293 transduction; cells expressing individual CP relative to no CP expression
Experimental: as §1
HEK-293T were reseeded in a 24 well tissue culture treated plate at a density of 1-2*10^4 cells/well in 0.5 mL of DMEM with 10% FBS. Cells were cultured overnight. 10-fold serial dilutions of prepared AAV2 particle solutions using DMEM with 10% FBS were used to infect the HEK-293T cells. Dilutions ranged from 1:10 to 1:10000. On Day 3 after infection, cells were detached using Trypsin/EDTA and analyzed for eGFP expression by image-based cytometry.
as §2, §3
The fold improvement in biological titer was calculated by dividing the percentage of GFP expressing (transduced) cells after transduction with AAVs packaged in cells expressing a CP by the percentage of GFP expressing (transduced) cells after transduction with AAVs packaged in cells that are not expressing a CP.

Substance	fold improvement in biological titer of AAVs
CSESCP: engineered cyclic peptide, SEQ ID NO: 57 (cyclic; Cyclic peptide that was found to enhance AAV viral titer)	fold improvements in biological titer
CETDV: engineered cyclic peptide, SEQ ID NO: 52 (cyclic; Cyclic peptide that was found to enhance AAV viral titer)	fold improvements in biological titer
CSVPY: engineered cyclic peptide, SEQ ID NO: 58 (cyclic; Cyclic peptide that was found to enhance AAV viral titer)	fold improvements in biological titer
CYSPF: engineered cyclic peptide, SEQ ID NO: 61 (cyclic; Cyclic peptide that was found to enhance AAV viral titer)	fold improvements in biological titer
CARFR: engineered cyclic peptide, SEQ ID NO: 51 (cyclic; Cyclic peptide that was found to enhance AAV viral titer)	fold improvements in biological titer
CANMPY: engineered cyclic peptide, SEQ ID NO: 50 (cyclic; Cyclic peptide that was found to enhance AAV viral titer; We observed log10 enrichment score of 2.959, mean of 79 experimental replicates. We observed excellent mean log10 enrichment scores for this cyclic peptide across multiple AAV serotypes: AAV1_3.0; AAV2_3.1; AAV5_2.8; AAV6_2.7. This CP possesses the following motifs: POL_HYD_POL-motif; HYD_ARO_POL-motif; POL_HYD_HYD-motif.)	fold improvements in biological titer
CRRHYA: engineered cyclic peptide, SEQ ID NO: 230	fold improvements in biological titer
